Results: DBAASP
Converted amounts (≈) assume the structure as drawn. “And” between values parts separate entries of the source, which are not always exact repeats. Identical values can stand only once. Values belong to the compound of their own block, whether it stands above or below them.

Experiments:
Assay in all cases: ≥ marks a high value that may be exact or a test limit, other limits are often not marked, values filed in µg/mL are converted to µM
[1] = tested on: Bacillus subtilis KCTC 3038
[2] = tested on: Enterococcus casseliflavus
[3] = tested on: Enterococcus faecalis ATCC 29212
Enterococcus faecium = tested on: Enterococcus faecium
Enterococcus gallinarum = tested on: Enterococcus gallinarum
[4] = tested on: Saccharomyces cerevisiae ATCC 44774
[5] = tested on: Salmonella typhimurium KCTC 2370
Staphylococcus aureus = tested on: Staphylococcus aureus
[6] = tested on: Acinetobacter baumannii CCARM 12005
[7] = tested on: Acinetobacter baumannii CCARM 12035
[8] = tested on: Acinetobacter baumannii CCARM 12036
[9] = tested on: Acinetobacter baumannii CCARM 12037
[10] = tested on: Bacillus subtilis KCTC 1021
[11] = tested on: Bacillus subtilis KCTC 1022
[12] = tested on: Bacillus subtilis KCTC 3068
[13] = tested on: Escherichia coli CCARM 1229
[14] = tested on: Escherichia coli CCARM 1238
[15] = tested on: Escherichia coli KCTC 1682
[16] = tested on: Escherichia coli KCTC 2571
[17] = tested on: Escherichia coli KCTC 2593
[18] = tested on: Pseudomonas aeruginosa CCARM 2002
[19] = tested on: Pseudomonas aeruginosa CCARM 2003
[20] = tested on: Pseudomonas aeruginosa CCARM 2095
[21] = tested on: Pseudomonas aeruginosa CCARM 2163
[22] = tested on: Pseudomonas aeruginosa KCTC 1637
[23] = tested on: Pseudomonas aeruginosa KCTC 2004
[24] = tested on: Pseudomonas aeruginosa KCTC 2513
[25] = tested on: Salmonella typhimurium CCARM 8003
[26] = tested on: Salmonella typhimurium CCARM 8007
[27] = tested on: Salmonella typhimurium CCARM 8009
[28] = tested on: Salmonella typhimurium KCTC 1926
[29] = tested on: Staphylococcus aureus CCARM 3089
[30] = tested on: Staphylococcus aureus CCARM 3090
[31] = tested on: Staphylococcus aureus CCARM 3108
[32] = tested on: Staphylococcus aureus CCARM 3114
[33] = tested on: Staphylococcus aureus CCARM 3126
[34] = tested on: Staphylococcus aureus KCTC 1621
[35] = tested on: Staphylococcus aureus KCTC 1916
[36] = tested on: Staphylococcus aureus KCTC 3881
[37] = tested on: Staphylococcus epidermidis KCTC 1917
[38] = tested on: Acinetobacter baumannii ATCC 17987
Acinetobacter baumannii = tested on: Acinetobacter baumannii
[39] = tested on: Burkholderia cenocepacia 4813
Cutibacterium acnes C2 = tested on: Cutibacterium acnes C2
Cutibacterium acnes PJI2 = tested on: Cutibacterium acnes PJI2
[40] = tested on: Enterobacter cloacae 218R
[41] = tested on: Enterococcus faecalis ATCC 19433
Escherichia coli HB101 = tested on: Escherichia coli HB101
Escherichia coli O157 = tested on: Escherichia coli O157
[42] = tested on: Klebsiella pneumoniae 1549216
[43] = tested on: Klebsiella pneumoniae ATCC 13883
[44] = tested on: Klebsiella pneumoniae KPLN649
[45] = tested on: Mycobacterium tuberculosis H37Rv
[46] = tested on: Pseudomonas aeruginosa PA14
[47] = tested on: Pseudomonas aeruginosa PAO1
Pseudomonas aeruginosa = tested on: Pseudomonas aeruginosa
[48] = tested on: Salmonella enterica subsp. enterica serovar Typhimurium ATCC 14028s
[49] = tested on: Salmonella typhimurium C587
[50] = tested on: Staphylococcus aureus ATCC 25923

- MIC [1]: 1.06 µM (≈ 2 µg/mL)
- MIC [2]: 1.06 µM (≈ 2 µg/mL)
- MIC [3]: 1.06 µM (≈ 2 µg/mL)
- MIC (Enterococcus faecium): 1.06 µM (≈ 2 µg/mL)
- MIC (Enterococcus gallinarum): 1.06 µM (≈ 2 µg/mL)
- MIC [4]: 2.12 µM (≈ 4 µg/mL)
- MIC [5]: 2.12 µM (≈ 4 µg/mL)
- MIC (Staphylococcus aureus): 1.5 µM (≈ 2.83 µg/mL)
Structure (SMILES): CC[C@H](C)[C@H](NC(=O)[C@H](CCCCN)NC(=O)[C@H](CCC(N)=O)NC(=O)[C@H](CCCCN)NC(=O)[C@@H](NC(=O)[C@@H](NC(=O)[C@H](CCC(N)=O)NC(=O)[C@@H](NC(=O)[C@@H](NC(=O)[C@@H]1CCCN1C(=O)[C@H](CCCN=C(N)N)NC(=O)[C@@H](NC(=O)[C@@H](NC(=O)[C@@H](N)CCCN=C(N)N)[C@@H](C)CC)[C@@H](C)CC)[C@@H](C)CC)[C@@H](C)CC)[C@@H](C)CC)[C@@H](C)CC)C(=O)N[C@@H](CCCN=C(N)N)C(=O)O [RIIRPIIQIIKQKIR]

- MIC [6]: 4 µM (≈ 10.2 µg/mL)
- MIC [7]: 4 µM (≈ 10.2 µg/mL)
- MIC [8]: 4 µM (≈ 10.2 µg/mL)
- MIC [9]: 4 µM (≈ 10.2 µg/mL)
- MIC [10]: 4 µM (≈ 10.2 µg/mL)
- MIC [11]: 1 µM (≈ 2.55 µg/mL)
- MIC [12]: 4 µM (≈ 10.2 µg/mL)
- MIC [13]: 16 µM (≈ 40.8 µg/mL)
- MIC [14]: 16 µM (≈ 40.8 µg/mL)
- MIC [15]: 4 µM (≈ 10.2 µg/mL)
- MIC [16]: 4 µM (≈ 10.2 µg/mL)
- MIC [17]: 2 µM (≈ 5.11 µg/mL)
- MIC [18]: 4 µM (≈ 10.2 µg/mL)
- MIC [19]: 4 µM (≈ 10.2 µg/mL)
- MIC [20]: 4 µM (≈ 10.2 µg/mL)
- MIC [21]: 4 µM (≈ 10.2 µg/mL)
- MIC [22]: 8 µM (≈ 20.4 µg/mL)
- MIC [23]: 8 µM (≈ 20.4 µg/mL)
- MIC [24]: 8 µM (≈ 20.4 µg/mL)
- MIC [25]: 16 µM (≈ 40.8 µg/mL)
- MIC [26]: 16 µM (≈ 40.8 µg/mL)
- MIC [27]: 16 µM (≈ 40.8 µg/mL)
- MIC [28]: 8 µM (≈ 20.4 µg/mL)
- MIC [29]: 16 µM (≈ 40.8 µg/mL)
- MIC [30]: 16 µM (≈ 40.8 µg/mL)
- MIC [31]: 16 µM (≈ 40.8 µg/mL)
- MIC [32]: 16 µM (≈ 40.8 µg/mL)
- MIC [33]: 16 µM (≈ 40.8 µg/mL)
- MIC [34]: 4 µM (≈ 10.2 µg/mL)
- MIC [35]: 4 µM (≈ 10.2 µg/mL)
- MIC [36]: 4 µM (≈ 10.2 µg/mL)
- MIC [37]: 2 µM (≈ 5.11 µg/mL)
Structure (SMILES): CC[C@H](C)[C@H](NC(=O)CNC(=O)[C@H](CCCN=C(N)N)NC(=O)[C@H](CCCCN)NC(=O)[C@@H](NC(=O)[C@H](Cc1cnc[nH]1)NC(=O)[C@H](Cc1cnc[nH]1)NC(=O)[C@H](Cc1ccccc1)NC(=O)[C@@H](N)Cc1ccccc1)[C@@H](C)CC)C(=O)N[C@H](C(=O)N[C@@H](Cc1cnc[nH]1)C(=O)N[C@H](C(=O)NCC(=O)N[C@@H](CCCCN)C(=O)N[C@H](C(=O)N[C@H](C(=O)N[C@@H](Cc1cnc[nH]1)C(=O)N[C@@H](CCCN=C(N)N)C(=O)N[C@@H](CC(C)C)C(=O)N[C@H](C(=O)N[C@H](C(=O)NCC(=O)O)[C@@H](C)O)C(C)C)[C@@H](C)CC)[C@@H](C)O)C(C)C)C(C)C [FFHHIKRGIVHVGKTIHRLVTG]

- MIC [38]: ≥ 83.3 µM
- MIC (Acinetobacter baumannii): ≥ 83.3 µM
- MIC [39]: ≥ 167 µM
- MIC (Cutibacterium acnes C2): ≥ 41.6 µM
- MIC (Cutibacterium acnes PJI2): ≥ 41.6 µM
- MIC [40]: ≥ 41.6 µM
- MIC [41]: ≥ 167 µM
- MIC (Escherichia coli HB101): 20.8 µM (≈ 32 µg/mL)
- MIC (Escherichia coli O157): 20.8 µM (≈ 32 µg/mL)
- MIC [42]: ≥ 41.6 µM
- MIC [43]: 5.21 µM (≈ 7.99 µg/mL)
- MIC [44]: 20.8 µM (≈ 32 µg/mL)
- MIC [45]: 10.4 µM (≈ 16 µg/mL)
- MIC [46]: ≥ 41.6 µM and 20.8 µM
- MIC [47]: 41.6 µM (≈ 64 µg/mL)
- MIC (Pseudomonas aeruginosa): 12.4 µM (≈ 19 µg/mL)
- MIC [48]: ≥ 41.6 µM
- MIC [49]: ≥ 41.6 µM
- MIC [50]: 167 µM (≈ 256 µg/mL)
Structure (SMILES): CC[C@H](C)[C@H](NC(=O)[C@H](CCCN=C(N)N)NC(=O)[C@@H](NC(=O)[C@H](C)NC(=O)[C@@H](NC(=O)[C@@H](NC(=O)[C@H](CC(C)C)NC(=O)[C@H](CCCN=C(N)N)NC(=O)[C@@H](N)C(C)C)[C@@H](C)CC)C(C)C)C(C)C)C(=O)N[C@@H](Cc1c[nH]c2ccccc12)C(=O)N[C@@H](CCCN=C(N)N)C(=O)N[C@@H](CCCN=C(N)N)C(N)=O [VRLIVAVRIWRR]
